Reference: US12421230B2, “Tricyclic heteroaryl compounds useful as IRAK4 inhibitors” (BRISTOL-MYERS SQUIBB COMPANY, priority 2020, dated 2025)

What was measured:
Human whole blood = assay: IRAK4 Whole Blood Assay; type: cell-based; details: stimulated with TLR2 agonist lipoteichoic acid 10 μg/mL for 5 hours, IL-6 levels
Method: Human whole blood containing the anti-coagulant ACD-A was plated in 384-well plate (25 μL/well) and incubated with compounds for 60 minutes at 37° C. in a 5% CO2 incubator. The blood was stimulated with a TLR2 agonist, 10 μg/mL final concentration of lipoteichoic acid (Invivogen, San Diego, CA) in 25 μL RPMI (Gibco) for 5 hours in a 5% CO2 incubator. At the end of the incubation, plates were centrifuged at 2300 rpm for 5 minutes. Supernatants were harvested and analyzed for IL-6 levels by Flow Cytometry beads assay (BD Biosciences, San Jose, CA).

IRAK4 = target: T1, IRAK4 (Homo sapiens, UniProt Q9NWZ3); assay: IRAK4 Inhibition Assay; type: biochemical; details: ATP 500 μM; fluoresceinated peptide 1.5 μM; IRAK4 0.6 nM; 60 min room temperature; Caliper LABCHIP
T1 sequence (Q9NWZ3 1-460): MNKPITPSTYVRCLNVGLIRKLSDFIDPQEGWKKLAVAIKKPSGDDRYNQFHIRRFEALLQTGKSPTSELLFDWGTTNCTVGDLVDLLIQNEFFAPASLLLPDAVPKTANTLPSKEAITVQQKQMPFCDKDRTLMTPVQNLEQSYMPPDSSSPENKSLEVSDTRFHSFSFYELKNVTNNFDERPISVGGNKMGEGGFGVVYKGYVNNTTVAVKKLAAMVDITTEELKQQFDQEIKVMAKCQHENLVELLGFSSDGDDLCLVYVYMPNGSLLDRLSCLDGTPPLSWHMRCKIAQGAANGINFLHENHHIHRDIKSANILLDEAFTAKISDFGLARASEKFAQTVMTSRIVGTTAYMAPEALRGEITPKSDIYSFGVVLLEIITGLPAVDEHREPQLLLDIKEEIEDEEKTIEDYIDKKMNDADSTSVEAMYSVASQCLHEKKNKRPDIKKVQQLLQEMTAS
Method: The assays were performed in U-bottom 384-well plates. The final assay volume was 30 μL prepared from 15 μL additions of enzyme and substrates (fluoresceinated peptide and ATP) and test compounds in assay buffer (20 mM HEPES pH 7.2, 10 mM MgCl2, 0.015% Brij 35 and 4 mM DTT). The reaction was initiated by the combination of IRAK4 with substrates and test compounds. The reaction mixture was incubated at room temperature for 60 min. and terminated by adding 45 μL of 35 mM EDTA to each sample. The reaction mixture was analyzed on the Caliper LABCHIP® 3000 (Caliper, Hopkinton, MA) by electrophoretic separation of the fluorescent substrate and phosphorylated product. Inhibition data were calculated by comparison to no enzyme control reactions for 100% inhibition and vehicle-only reactions for 0% inhibition. The final concentrations of reagents in the assays are ATP, 500 μM; FL-IPTSPITTTYFFFKKK peptide 1.5 μM; IRAK4, 0.6 nM; and DMSO, 1.6%.

EC50 (Human whole blood) [nM]	IC50 (IRAK4) [nM]	Structure (SMILES)
1450	16	Cc1cc(CNC(=O)c2cnc3c([nH]c4cc(C#N)ccc43)c2NC(C)C)on1 [Example 15, 7-cyano-4-(isopropylamino)-N-((3-methylisoxazol-5-yl)methyl)-5H-pyrido[3,2-b]indole-3-carboxamide]
8170	17	CC(C)Nc1c(C(=O)NCc2nccs2)cnc2c1[nH]c1cc(C#N)ccc12 [Example 18, 7-cyano-4-(isopropylamino)-N-(thiazol-2-ylmethyl)-5H-pyrido[3,2-b]indole-3-carboxamide]
230	2.1	CC(C)(O)[C@H](F)CNC(=O)c1cnc2c([nH]c3cc(C#N)ccc32)c1NC1COC1 [Example 22, (R)-7-cyano-N-(2-fluoro-3-hydroxy-3-methylbutyl)-4-(oxetanylamino)-5H-pyrido[3,2-b]indole-3-carboxamide]
> 10000	15	CC(C)(O)[C@H](F)CNC(=O)c1cnc2c([nH]c3cc(C#N)ccc32)c1Nc1cnn(CC(F)F)c1 [Example 23, (R)-7-cyano-4-((1-(2,2-difluoroethyl)-1H-pyrazol-4-yl)amino)-N-(2-fluoro-3-hydroxy-3-methylbutyl)-5H-pyrido[3,2-b]indole-3-carboxamide]
1500	3.5	CC(O)CCNC(=O)c1cnc2c([nH]c3cc(C#N)ccc32)c1NC(C)C (centres unmarked) [Example 25, 7-cyano-N-(3-hydroxybutyl)-4-(isopropylamino)-5H-pyrido[3,2-b]indole-3-carboxamide]
3380	5.3	C[C@@H](CO)Nc1c(C(=O)NCCC(C)(C)O)cnc2c1[nH]c1cc(C#N)ccc12 [Example 30, (S)-7-cyano-N-(3-hydroxy-3-methylbutyl)-4-((1-hydroxypropan-2-yl)amino)-5H-pyrido[3,2-b]indole-3-carboxamide]
1600	6.3	CC(C)(O)CCNC(=O)c1cnc2c([nH]c3cc(C#N)ccc32)c1NC(C)(C)C [Example 40, 4-(tert-butylamino)-7-cyano-N-(3-hydroxy-3-methylbutyl)-5H-pyrido[3,2-b]indole-3-carboxamide]
510	3.1	CC(C)(O)[C@H]1C[C@H](NC(=O)c2cnc3c([nH]c4cc(C#N)ccc43)c2NC2CC2)C1 [Example 44, 7-cyano-4-(cyclopropylamino)-N-((1R,3R)-3-(2-hydroxypropan-2-yl)cyclobutyl)-5H-pyrido[3,2-b]indole-3-carboxamide]
> 10000	14	CC(C)(O)CCNC(=O)c1cnc2c([nH]c3cc(C#N)ccc32)c1N [Example 54, 4-amino-7-cyano-N-(3-hydroxy-3-methylbutyl)-5H-pyrido[3,2-b] indole-3-carboxamide]
610	18	CCNc1c(C(=O)NCCC2CCCN2)cnc2c1[nH]c1cc(C#N)ccc12 (centres unmarked) [Example 57, 7-cyano-4-(ethylamino)-N-(2-(pyrrolidin-2-yl)ethyl)-5H-pyrido[3,2-b]indole-3-carboxamide]
> 10000	5.4	CC(C)Nc1c(C(=O)NCCC(C)(C)NC(=O)C2CC2)cnc2c1[nH]c1cc(C#N)ccc12 [Example 59, 7-cyano-N-(3-(cyclopropanecarboxamido)-3-methylbutyl)-4-(isopropylamino)-5H-pyrido[3,2-b]indole-3-carboxamide]

The next lines start with the compound.

Structure (SMILES)	EC50 (Human whole blood) [nM]	IC50 (IRAK4) [nM]
CC(=O)N[C@H]1CC[C@H](NC(=O)c2cnc3c([nH]c4cc(C#N)ccc43)c2NC(C)C)CC1 [Example 13, N-((1R,4R)-4-acetamidocyclohexyl)-7-cyano-4-(isopropylamino)-5H-pyrido[3,2-b]indole-3-carboxamide]	2210	3.7
CC(C)Nc1c(C(=O)NCc2cocn2)cnc2c1[nH]c1cc(C#N)ccc12 [Example 14, 7-cyano-4-(isopropylamino)-N-(oxazol-4-ylmethyl)-5H-pyrido[3,2-b]indole-3-carboxamide]	3500	19
COCCNC(=O)c1cnc2c([nH]c3cc(C#N)ccc32)c1NC(C)C [Example 17, 7-cyano-4-(isopropylamino)-N-(2-methoxyethyl)-5H-pyrido[3,2-b]indole-3-carboxamide]	4730	13
CC(C)Nc1c(C(=O)NCc2ncn[nH]2)cnc2c1[nH]c1cc(C#N)ccc12 [Example 20, N-((1H-1,2,4-triazol-5-yl)methyl)-7-cyano-4-(isopropylamino)-5H-pyrido[3,2-b] indole carboxamide]	1050	14
CC(C)CCNC(=O)c1cnc2c([nH]c3cc(C#N)ccc32)c1NC(C)C [Example 21, 7-cyano-N-isopentyl-4-(isopropylamino)-5H-pyrido[3,2-b] indole carboxamide]	1340	2.1
CC(C)Nc1c(C(=O)NCCC(F)(F)F)cnc2c1[nH]c1cc(C#N)ccc12 [Example 27, 7-cyano-4-(isopropylamino)-N-(3,3,3-trifluoropropyl)-5H-pyrido[3,2-b]indole-3-carboxamide]	> 10000	13
CC(C)Nc1c(C(=O)NCCC(F)F)cnc2c1[nH]c1cc(C#N)ccc12 [Example 31, 7-cyano-N-(3,3-difluoropropyl)-4-(isopropylamino)-5H-pyrido[3,2-b]indole-3-carboxamide]	> 20000	9.5
CC(C)Nc1c(C(=O)NCCC2CC2)cnc2c1[nH]c1cc(C#N)ccc12 [Example 34, 7-cyano-N-(2-cyclopropylethyl)-4-(isopropylamino)-5H-pyrido[3,2-b]indole-3-carboxamide]	580	3.4
CC(C)Nc1c(C(=O)NCCN2CCOCC2)cnc2c1[nH]c1cc(C#N)ccc12 [Example 35, 7-cyano-4-(isopropylamino)-N-(2-morpholinoethyl)-5H-pyrido[3,2-b]indole-3-carboxamide]	770	3
CC(C)(O)CCNC(=O)c1cnc2c([nH]c3cc(C#N)ccc32)c1NCC(F)F [Example 36, 7-cyano-4-((2,2-difluoroethyl)amino)-N-(3-hydroxy-3-methylbutyl)-5H-pyrido[3,2-b]indole-3-carboxamide]	3320	9.1
CC(C)Nc1c(C(=O)NCCC(C)(C)F)cnc2c1[nH]c1cc(C#N)ccc12 [Example 38, 7-cyano-N-(3-fluoro-3-methylbutyl)-4-(isopropylamino)-5H-pyrido[3,2-b]indole-3-carboxamide]	510	3.1
CC(C)Nc1c(C(=O)N[C@H]2C[C@H](C(C)(C)O)C2)cnc2c1[nH]c1cc(C#N)ccc12 [Example 39, 7-cyano-N-((1R,3R)-3-(2-hydroxypropan-2-yl)cyclobutyl)-4-(isopropylamino)-5H-pyrido[3,2-b] indole-3-carboxamide]	> 20000	3.9
CC(C)Nc1c(C(=O)NCCC2(O)CC(F)(F)C2)cnc2c1[nH]c1cc(C#N)ccc12 [Example 43, 7-cyano-N-(2-(3,3-difluoro-1-hydroxycyclobutyl)ethyl)-4-(isopropylamino)-5H-pyrido[3,2-b]indole-3-carboxamide]	740	2.5
CC(C)(O)CCNC(=O)c1cnc2c([nH]c3cc(C#N)ccc32)c1NC1CC1 [Example 46, 7-cyano-4-(cyclopropylamino)-N-(3-hydroxy-3-methylbutyl)-5H-pyrido[3,2-b]indole-3-carboxamide]	740	2.6
CC(C)Nc1c(C(=O)NCC(F)(F)CN)cnc2c1[nH]c1cc(C#N)ccc12 [Example 51, N-(3-amino-2,2-difluoropropyl)-7-cyano-4-(isopropylamino)-5H-pyrido[3,2-b]indole-3-carboxamide]	1550	16
CC(=O)NC(C)(C)CCNC(=O)c1cnc2c([nH]c3cc(C#N)ccc32)c1NC(C)C [Example 60, N-(3-acetamido-3-methylbutyl)-7-cyano-4-(isopropylamino)-5H-pyrido[3,2-b]indole-3-carboxamide]	> 20000	3.8
CC(C)Nc1c(C(=O)NCC2CCS(=O)(=O)C2)cnc2c1[nH]c1cc(C#N)ccc12 (centres unmarked) [Example 61, 7-cyano-N-((1,1-dioxidotetrahydrothiophen-3-yl)methyl)-4-(isopropylamino)-5H-pyrido[3,2-b]indole-3-carboxamide]	> 20000	7.2
